Measured values from patent US4039535A, “7-[α-(GUANYL-1-UREIDO)PHENYLACETAMIDO]-3-SUBSTITUTED CEPHALOSPORIN ANTIBIOTICS” (Eli Lilly and Company, priority 1976, dated 1977).
Converted amounts (≈) assume the structure as drawn. Like-named read-outs stand apart in the source and are kept apart here.

Experiments:
Format in all cases: cell-based
[1] = tested on: Aerobacter aerogenes; test: MIC by Gradient Plate Method, in vitro antibiotic activity vs gram-negative microorganisms (Table I); settings: Klebsiella aerogenes, read-out: Minimum Inhibitory Conc.
Method: (§1) In the tables the minimum inhibitory concentrations (MIC) of the listed compound verses the indicated gram-positive and gram-negative microorganisms is presented.
(§2) The MIC values were determined by the Gradient Plate Method which is essentially the method described by Bryson and Szybalski, Science, 116, 45-46 (1952).

[2] = tested on: Escherichia coli; test: as above; settings: read-out: Minimum Inhibitory Conc.
Method: as §1, §2

[3] = tested on: Klebsiella pneumoniae; test: as above; settings: read-out: Minimum Inhibitory Conc.
Method: as §1, §2

[4] = tested on: Pseudomonas aeruginosa; test: as above; settings: read-out: Minimum Inhibitory Conc.
Method: as §1, §2

[5] = tested on: Salmonella heidelberg; test: as above; settings: Salmonella enterica, read-out: Minimum Inhibitory Conc.
Method: as §1, §2

[6] = tested on: Serratia marcescens; test: as above; settings: read-out: Minimum Inhibitory Conc.
Method: as §1, §2

[7] = tested on: Shigella sp.; test: as above; settings: read-out: Minimum Inhibitory Conc.
Method: as §1, §2

[8] = tested on: penicillin resistant staphylococcus V32; test: MIC by Gradient Plate Method vs penicillin resistant staphylococcus clinical isolates (Table II); settings: read-out: Minimum Inhibitory Concentration
Method: as §1, §2

[9] = tested on: penicillin resistant staphylococcus V41; test: as above; settings: read-out: Minimum Inhibitory Concentration
Method: as §1, §2

[10] = tested on: penicillin resistant staphylococcus V84; test: as above; settings: read-out: Minimum Inhibitory Concentration
Method: as §1, §2

[11] = tested on: penicillin resistant staphylococcus X1.1; test: as above; settings: read-out: Minimum Inhibitory Concentration
Method: as §1, §2

[12] = tested on: gram-negative microorganisms; test: Antibiotic activity against gram-negative microorganisms, summary of Table I; settings: in words; MIC values in Table I; vs compound E
Method: as §1, §2

Row | SMILES | MIC [1] [µg/mL] | MIC [2] [µg/mL] | MIC [3] [µg/mL] | MIC [4] [µg/mL] | MIC [5] [µg/mL] | MIC [6] [µg/mL] | MIC [7] [µg/mL] | MIC ([8]; N.S. = in the absence of serum) [µg/mL] | MIC ([8]; S = in the presence of serum) [µg/mL] | MIC ([9]; N.S. = in the absence of serum) [µg/mL] | MIC ([9]; S = in the presence of serum) [µg/mL] | MIC ([10]; N.S. = in the absence of serum) [µg/mL] | MIC ([10]; S = in the presence of serum) [µg/mL] | MIC ([11]; N.S. = in the absence of serum) [µg/mL] | MIC ([11]; S = in the presence of serum) [µg/mL] | activity against gram-negative microorganisms compared with known compound E [12]
1 | Cn1nnnc1SCC1=C(C(=O)O)N2C(=O)C(NC(=O)[C@H](NC(=O)NC(=N)N)c3ccccc3)C2SC1 (stereo partly drawn) [A, 7-[D-α-(3-Guanyl-1-ureido)phenylacetamido]-3-(1-methyl-1H-tetrazol-5yl-thiomethyl)-3-cephem-4-carboxylic acid] | 0.7 (≈ 1.28 µM) | 2 (≈ 3.66 µM) | 1 (≈ 1.83 µM) | 53.5 (≈ 97.9 µM) | 0.8 (≈ 1.46 µM) | 7 (≈ 12.8 µM) | 2 (≈ 3.66 µM) | 1 (≈ 1.83 µM) | 9 | 0.7 (≈ 1.28 µM) | 1 | 0.6 (≈ 1.1 µM) | 1 | 0.5 (≈ 0.915 µM) | < 0.1 | significantly greater activity against gram-negative microorganisms than the known compound, E
2 | Cc1nnc(SCC2=C(C(=O)O)N3C(=O)C(NC(=O)[C@H](NC(=O)NC(=N)N)c4ccccc4)C3SC2)s1 (stereo partly drawn) [B, 7-[d-α-(3-guanyl-1-ureido)phenylacetamido]-3-(5-methyl-1,3,4-thiadiazol-2-yl-thiomethyl)-3-cephem-4-carboxylid acid] | 1 (≈ 1.78 µM) | 8.7 (≈ 15.5 µM) | 1 (≈ 1.78 µM) | 104 (≈ 185 µM) | 6 (≈ 10.7 µM) | 14.3 (≈ 25.4 µM) | 5.5 (≈ 9.78 µM) | 1 (≈ 1.78 µM) | > 20 | 1 (≈ 1.78 µM) | > 20 | 0.6 (≈ 1.07 µM) | 10 | 0.6 (≈ 1.07 µM) | 10 | significantly greater activity against gram-negative microorganisms than the known compound, E
3 | Cn1nnnc1SCC1=C(C(=O)O)N2C(=O)C(NC(=O)[C@H](NC(=O)NC(=N)N)c3ccc(O)cc3)C2SC1 (stereo partly drawn) [C, 7-[d-α-(3-guanyl-1-ureido)-4-hydroxyphenylacetamido]-3-(1-methyl-1H-tetrazol-5-yl-thiomethyl)-3-cephem-4-carboxylic acid] | 0.1 (≈ 0.178 µM) | 0.7 (≈ 1.24 µM) | 1.2 (≈ 2.13 µM) | 23 (≈ 40.9 µM) | 0.2 (≈ 0.355 µM) | 21 (≈ 37.3 µM) | 0.7 (≈ 1.24 µM) | 1 (≈ 1.78 µM) | 10 | < 0.1 | 10 | < 0.1 | 1 | < 0.1 | 0.6 | significantly greater activity against gram-negative microorganisms than the known compound, E
4 | Cc1nnc(SCC2=C(C(=O)O)N3C(=O)C(NC(=O)[C@H](NC(=O)NC(=N)N)c4ccc(O)cc4)C3SC2)s1 (stereo partly drawn) [D, 7-[d-α-(3-guanyl-1-ureido)-4-hydroxyphenylacetamido]-3-(5-methyl-1,3,4-thiadiazol-2-yl-thiomethyl)-3-cephem-4-carboxylic acid] | 1 (≈ 1.73 µM) | 6 (≈ 10.4 µM) | 1 (≈ 1.73 µM) | 50 (≈ 86.4 µM) | 1 (≈ 1.73 µM) | 50 (≈ 86.4 µM) | 4.5 (≈ 7.78 µM) | 1 (≈ 1.73 µM) | 12 | 1 (≈ 1.73 µM) | 6 | 1 (≈ 1.73 µM) | 2 | 1 (≈ 1.73 µM) | 1 | significantly greater activity against gram-negative microorganisms than the known compound, E
5 | CC(=O)OCC1=C(C(=O)O)N2C(=O)C(NC(=O)[C@H](NC(=O)NC(=N)N)c3ccccc3)C2SC1 (stereo partly drawn) [E, 7-[d-α-(3-guanyl-1-ureido)phenylacetamido]-3-acetoxymethyl-3-cephem-4-carboxylic acid, reference compound] | 4.5 (≈ 9.17 µM) | 13.8 (≈ 28.1 µM) | 21.5 (≈ 43.8 µM) | 100 (≈ 204 µM) | 6 (≈ 12.2 µM) | 31.5 (≈ 64.2 µM) | 16.3 (≈ 33.2 µM) | 0.7 (≈ 1.43 µM) | 1 | 0.5 (≈ 1.02 µM) | 1 | 0.6 (≈ 1.22 µM) | 1 | 0.6 (≈ 1.22 µM) | 1 | –
